± gives the expanded uncertainty stated by the source.
Assay: excess molar enthalpy (molar enthalpy of mixing); xn = mol fraction of the nth substance listed
Settings: 298.15 K, 101 kPa, Liquid, Calvet calorimetry

Which results are given for `OCCOCCO` [diethylene glycol] + O?
excess molar enthalpy (x1 = 0.2): -0.291 ± 0.00335 kcal/mol; excess molar enthalpy (x1 = 0.401): -0.291 ± 0.00335 kcal/mol; excess molar enthalpy (x1 = 0.501): -0.275 ± 0.00311 kcal/mol; excess molar enthalpy (x1 = 0.804): -0.111 ± 0.00263 kcal/mol

For `CCn1cc[n+](C)c1.COP(=O)([O-])OC` [1-ethyl-3-methylimidazolium dimethylphosphate] + CO, which excess molar enthalpy (x1 = 0.2) is on record?
The excess molar enthalpy was -0.6728 ± 0.0055 kcal/mol.

What about the excess molar enthalpy (x1 = 0.4) of the same compound?
Its excess molar enthalpy is -0.8537 ± 0.00669 kcal/mol.

What about the excess molar enthalpy (x1 = 0.7) of the same compound?
Its excess molar enthalpy is -0.5566 ± 0.00478 kcal/mol.

Which results are given for `CCn1cc[n+](C)c1.COP(=O)([O-])OC` [1-ethyl-3-methylimidazolium dimethylphosphate] + O?
excess molar enthalpy (x1 = 0.1): -0.881 ± 0.00813 kcal/mol; excess molar enthalpy (x1 = 0.2): -1.3 ± 0.0105 kcal/mol; excess molar enthalpy (x1 = 0.4): -1.463 ± 0.0115 kcal/mol; excess molar enthalpy (x1 = 0.5): -1.381 ± 0.011 kcal/mol; excess molar enthalpy (x1 = 0.7): -1.008 ± 0.00813 kcal/mol

Which excess molar enthalpy (x1 = 0.1) does the source give for `CCn1cc[n+](C)c1.COP(=O)([O-])OC` [1-ethyl-3-methylimidazolium dimethylphosphate] + CCO here?
The excess molar enthalpy was -0.311 ± 0.00406 kcal/mol.

What about the excess molar enthalpy (x1 = 0.2) of the same compound?
The excess molar enthalpy was -0.5184 ± 0.00478 kcal/mol.

And the excess molar enthalpy (x1 = 0.4)?
Its excess molar enthalpy is -0.6726 ± 0.0055 kcal/mol.

What about the excess molar enthalpy (x1 = 0.7) of the same compound?
Its excess molar enthalpy is -0.4333 ± 0.00406 kcal/mol.

Source: the NIST ThermoML archive (doi:10.1021/je400158p)
